Experimental data published in patent publication US20060257481A1, “Sustained release formulation and dosing schedule of leukotriene synthesis inhibitor for human therapy” (deCODE Genetics ehf., priority 2005, published 2006).

What was measured:
[1] = tested on: CRP; experiment: Study DG-031-203 open label dose ranging: serum CRP; type: in vivo, human
Description: The study also collected information on the dose-related effect of DG-031 on capacity for LTB4 production (ex vivo), plasma MPO, and serum-CRP. […] The pattern observed supported a concentration dependent pharmacologic effect of DG-031 on capacity for LTB4 production measured ex vivo. The effects on LTB4 production amounted to a 30% (p=0.016) and 25% (p=0.094) reduction with the 375 mg BID and 250 mg TID doses, respectively.

[2] = tested on: Lp-PLA2; experiment: Study DG-031-201 cross-over trial: Lp-PLA2; type: in vivo, human; details: highest dose; [3%,16%], p=0.006
Description: Patients who met the study eligebility criteria were enrolled and randomized into 3 different dose-level groups: (1) 64 patients on 250 mg/day therapy with DG-031 (250 mg q.d.), vs placebo; (2) 64 patients on 500 mg/day therapy with DG-031 (250 mg b.i.d.) vs placebo; and (3) 63 patients on 750 mg/day therapy with DG-031 (250 mg t.i.d.) vs placebo. […] All patients received 3 tablets per day. Treatment periods, 4 weeks in duration each, were separated by a 2-week washout period. The placebo tablets were identical in shape, color, form and taste to the active tablets except that they contained no active drug ingredients. Treatment with DG-031 or placebo was in addition to the subject's standard care, including all medications and treatment plan as prescribed by the subject's cardiologist prior to enrolment. A total of 191 subjects were enrolled, with 172 completing all 8 visits or 8 patients short of the target of 180 patients. […]
(§1) All data were analyzed according to a pre-established statistical analysis plan (SAP) and by intention-to-treat (ITT). […] The difference between DG-031 and placebo treatment was the primary outcome, assessed separately for each of the biomarkers. […]

[3] = tested on: LTE4 in urine; experiment: Study DG-031-201: LTE4 in urine; type: in vivo, human
Description: (§2) Patients who met the study eligebility criteria were enrolled and randomized into 3 different dose-level groups: (1) 64 patients on 250 mg/day therapy with DG-031 (250 mg q.d.), vs placebo; (2) 64 patients on 500 mg/day therapy with DG-031 (250 mg b.i.d.) vs placebo; and (3) 63 patients on 750 mg/day therapy with DG-031 (250 mg t.i.d.) vs placebo. […] All patients received 3 tablets per day. Treatment periods, 4 weeks in duration each, were separated by a 2-week washout period. The placebo tablets were identical in shape, color, form and taste to the active tablets except that they contained no active drug ingredients. Treatment with DG-031 or placebo was in addition to the subject's standard care, including all medications and treatment plan as prescribed by the subject's cardiologist prior to enrolment. A total of 191 subjects were enrolled, with 172 completing all 8 visits or 8 patients short of the target of 180 patients.
The primary objective was to determine whether the FLAP inhibitor has a statistically significant effect, compared to placebo, on one or more biomarkers of MI risk, including: (1) ionomycin-induced LTB4 and MPO release by neutrophils ex vivo; (2) MPO, CRP, N-tyrosine, Lp-PLA2 or amyloid A in serum, or (3) LTE4 in urine. The secondary objective was to determine whether the effect of DG-031 was dose-dependent. The tertiary objective was to assess other biomarkers (See Results). Evaluation of safety and tolerability of the drug was also a primary endpoint.
All data were analyzed according to a pre-established statistical analysis plan (SAP) and by intention-to-treat (ITT). Each arm of the study, as well as pooled sets (combining dose levels), was considered for the primary analysis. Each such set is an AB/BA cross-over design and in the primary analysis of efficacy, the levels of biomarkers of MI risk at the end of the treatment periods (visits 4 and 7) were used as primary response variables. The difference between DG-031 and placebo treatment was the primary outcome, assessed separately for each of the biomarkers. […]

[4] = clinical; details: human, in vivo
Description: Measurements of plasma DG-031 can be carried out by methods that are standard in the art. […] The DG-031 is then measured by liquid chromatography and/or mass spectrometry and the measured concentration is compared to a standard curve.
After completion of the double-blind study reported herein an open-label randomized study was conducted in an independent cohort but with same eligibility criteria and measuring several of the same biomarkers. […] Each patient was on drug for 8 days; there was no placebo group. The primary objective of this study was to determine pharmacokinetic parameters of DG-031 in three different doses, as well as to assess the pharmacokinetic/pharmacodynamic relationship between DG-031, LTB4 and MPO.
The additional phase II study was conducted to compare a 750 mg total daily dose administered in a BID or TID dosing regimen.

[5] = tested on: MCP-1; experiment: Study DG-031-201: MCP-1; type: in vivo, human; details: difference visit 2 to visit 5; 500 and 750 mg/day vs placebo cohort
Description: as §2
as §1, with “(ITT). Each arm of the study, as well as pooled sets (combining dose levels), was considered for the primary analysis.” for “(ITT).”

[6] = tested on: MMP-9; experiment: Study DG-031-201: MMP 9; type: in vivo, human; details: difference visit 2 to visit 5; 500 and 750 mg/day vs placebo cohort
Description: as §2
as §1, with “(ITT). Each arm of the study, as well as pooled sets (combining dose levels), was considered for the primary analysis.” for “(ITT).”

O=C(O)[C@@H](c1ccc(OCc2ccc3ccccc3n2)cc1)C1CCCC1 [DG-031, (R)-(+)-alpha-cyclopentyl-4-(2-quinolinylmethoxy)-Benzeneacetic acid]
Reduction in CRP levels, high CRP group ([1]; 250 mg TID, CRP above median (1.4 mg/L) at entry, P=0.014): 48% | CRP ([1]; 250 mg TID, St. 203, 1 wk, p = 0.07): 37% (St. 203) | Reduction of serum CRP ([1]; 250 mg TID, after one week of therapy, all subjects, follow-up study 203, [9%,57%]): 38% | CRP ([1]; 375 mg BID, Study 203): No effect | Change in CRP ([1]; 375 mg BID, all subjects, one week, p=0.94): −1% | Reduction of CRP, high CRP group ([1]; 375 mg BID, p=0.16, not significant): 31% | CRP ([1]; 375 mg QD, Study 203, 1 wk, p = 0.021): −28% | Increase of Lp-PLA2 [2]: 9% | Carry-over effect, LTE4 in urine ([3]; difference visit 2 to visit 5, 500 and 750 mg/day vs placebo cohort): −0.06 | Increase of urine levels of LTE4 ([3]; highest dose, [15%,40%], p<0.001): 27% | Increase of urine levels of LTE4 ([3]; pooled dose set 500 mg and 750 mg, [13%,30%]): 21% | half-life ([4]; Dominant half-life, humans): 2.5 to 3 h | half-life ([4]; Slower half-life, fraction of the dose with slower elimination): 10 to 15 h | Carry-over effect, MCP-1 [5]: 0.07 | Carry-over effect, MMP 9 [6]: −0.04
